# In patent publication US10112944B2, “Heterocyclic compounds useful as inhibitors of TNF” (BRISTOL-MYERS SQUIBB COMPANY, priority 2015, dated 2018):
# Target: TNFα (Homo sapiens (Human), UniProt P01375)
# Test: TNF induced HEK-Blue assay
# Assay type: cell-based
# Conditions: HEK-Blue-CD40L cells, TNFα 0.5 ng/ml, NF-κB-driven secreted alkaline phosphatase reporter, 18 h
# Protocol: TNF or CD40L-Induced HEK-Blue Assay
# Test compounds serially diluted in DMSO were plated in an assay plate (Labcyte, Cat. #LP-0200) at final concentrations ranging from 0.004 μM to 25 μM. TNFα (final concentration 0.5 ng/ml) or CD40L (final concentration 30 ng/ml) in assay buffer [DMEM, 4.5 g/l glucose (Gibco, Cat. 21063-029), 10% FBS (Sigma, F4135), 1% Penicillin-Streptomycin (Gibco, Cat. 15140-122), 1% Anti-Anti (Gibco, Cat. 15240-112) and 2 mM L-glutamine (Gibco, Cat. 25030-081)] was then added to the assay plate. After a 30 minute pre-incubation at 37° C. and 5% CO2, HEK-Blue-CD40L cells (InvivoGen, Cat. Code hkb-cd40) containing a NF-κB-driven secreted alkaline phosphatase reporter gene were seeded into the assay plate at a density of 20,000 cells per well. This plate was then incubated for 18 h at 37° C. and 5% CO2. Secreted alkaline phosphatase expression was measured using QUANTI-Blue (InvivoGen, Cat. Code rep-qbl) according to manufacturer's specifications and the assay plate was read on a PerkinElmer Envision at 620 nm.
# Inhibition data for the test compound over a range of concentrations was plotted as percentage inhibition of the test compound (100%=maximum inhibition). IC50 values were determined after correcting for background [(sample read−mean of low control)/(mean of high control−mean of low control)] where by the low control is DMSO without stimulation and high control is DMSO with stimulation. The IC50 is defined as the concentration of test compound which produces 50% inhibition and was quantified using the 4 parameter logistic equation to fit the data.
# TNFα, sequence (P01375 77-233): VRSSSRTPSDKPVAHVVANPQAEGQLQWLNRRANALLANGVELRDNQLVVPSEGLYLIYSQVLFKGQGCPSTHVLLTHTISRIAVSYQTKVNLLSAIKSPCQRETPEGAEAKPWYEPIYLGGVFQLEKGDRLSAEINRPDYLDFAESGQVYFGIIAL
row,SMILES,IC50 [nM]
1,"COc1ccc(-c2cn3c4c(nc3cc2C)CCCN4c2ccccc2OC(F)F)cn1 [Example 2, 1-(2-(Difluoromethoxy)phenyl)-8-(6-methoxypyridin-3-yl)-7-methyl-1,2,3,4-tetrahydroimidazo[1,2-a:5,4-b′]dipyridine]",< 1000
2,"Cc1cc2nc3c(n2cc1-c1cnn(C)c1)N(c1ccccc1OC(F)F)CCC3 [Example 4, 1-(2-(Difluoromethoxy)phenyl)-7-methyl-8-(1-methyl-1H-pyrazol-4-yl)-1,2,3,4-tetrahydroimidazo[1,2-a:5,4-b′]dipyridine]",1000 to 10000
3,"COc1ccc(-c2ccc3nc4c(n3c2)N(c2ccccc2OC(F)F)CCC4)cn1 [Example 6, 1-(2-(Difluoromethoxy)phenyl)-8-(6-methoxypyridin-3-yl)-1,2,3,4-tetrahydroimidazo[1,2-a:5,4-b′]dipyridine]",< 1000
4,"COc1ccc(-c2ccc3nc4c(n3c2)N(c2nccc3ccccc23)CCC4)cn1 [Example 8, 1-(Isoquinolin-1-yl)-8-(6-methoxypyridin-3-yl)-1,2,3,4-tetrahydroimidazo [1,2-a:5,4-b′]dipyridine]",1000 to 10000
5,"COc1ccc(-c2ccc3nc4c(n3c2)N(c2ccccc2OC(F)(F)F)CCC4)cn1 [Example 10, 8-(6-Methoxypyridin-3-yl)-1-(2-(trifluoromethoxy)phenyl)-1,2,3,4-tetrahydroimidazo[1,2-a:5,4-b′]dipyridine]",< 1000
6,"Cn1cc(-c2ccc3nc4c(n3c2)N(c2ccccc2OC(F)F)CCC4)cn1 [Example 13, 1-(2-(Difluoromethoxy)phenyl)-8-(1-methyl-1H-pyrazol-4-yl)-1,2,3,4-tetrahydroimidazo[1,2-a:5,4-b′]dipyridine]",< 1000
7,"FC(F)Oc1ccccc1N1CCCc2nc3ccc(-c4cnc(N5CCOCC5)nc4)cn3c21 [Example 15, 4-(5-(1-(2-(Difluoromethoxy)phenyl)-1,2,3,4-tetrahydroimidazo[1,2-a:5,4-b′]dipyridin-8-yl)pyrimidin-2-yl)morpholine]",< 1000
8,"Cc1ccc(OC(F)F)c(N2CCCc3nc4ccc(-c5cnc(N6CCOCC6)nc5)cn4c32)c1 [Example 19, 4-(5-(1-(2-(Difluoromethoxy)-5-methylphenyl)-1,2,3,4-tetrahydroimidazo [1,2-a:5,4-b′]dipyridin-8-yl)pyrimidin-2-yl)morpholine]",< 1000
9,"CC(C)(O)c1ncc(-c2cn3c4c(nc3cc2Cl)CCCN4c2ccccc2)cn1 [Example 21, 2-(5-(7-Chloro-1-phenyl-1,2,3,4-tetrahydroimidazo[1,2-a:5,4-b′]dipyridin-8-yl)pyrimidin-2-yl)propan-2-ol]",< 1000
10,"COc1ccc(-c2cn3c4c(nc3cc2Cl)CCCN4c2ccccc2OC(F)F)cn1 [Example 22, 7-Chloro-1-(2-(difluoromethoxy)phenyl)-8-(6-methoxypyridin-3-yl)-1,2,3,4-tetrahydroimidazo[1,2-a:5,4-b′]dipyridine]",1000 to 10000
11,"CCc1ccccc1N1CCCc2nc3ccc(-c4ccc(OC)nc4)cn3c21 [Example 28, 1-(2-Ethylphenyl)-8-(6-methoxypyridin-3-yl)-1,2,3,4-tetrahydroimidazo [1,2-a:5,4-b′]dipyridine]",< 1000
12,"COc1ccc(-c2ccc3nc4c(n3c2)N(c2ccccc2Cl)CCC4)cn1 [Example 31, 1-(2-Chlorophenyl)-8-(6-methoxypyridin-3-yl)-1,2,3,4-tetrahydroimidazo[1,2-a:5,4-b′]dipyridine]",< 1000
13,"CC(C)(O)c1ncc(-c2ccc3nc4c(n3c2)N(c2ccccc2OC(F)F)CCC4)cn1 [Example 34, 2-(5-(1-(2-(Difluoromethoxy)phenyl)-1,2,3,4-tetrahydroimidazo[1,2-a:5,4-b′]dipyridin-8-yl)pyrimidin-2-yl)propan-2-ol]",< 1000

# Now from value to compound:
row,IC50 [nM],SMILES
1,1000 to 10000,"COc1ccc(-c2cn3c4c(nc3cc2C)CCCN4c2cc(C)ccc2C)cn1 [Example 1, 1-(2,5-Dimethylphenyl)-8-(6-methoxypyridin-3-yl)-7-methyl-1,2,3,4-tetrahydroimidazo [1,2-a:5,4-b′]dipyridine]"
2,< 1000,"Cc1ccc(C)c(N2CCCc3nc4cc(C)c(-c5cnn(C)c5)cn4c32)c1 [Example 3, 1-(2,5-Dimethylphenyl)-7-methyl-8-(1-methyl-1H-pyrazol-4-yl)-1,2,3,4-tetrahydroimidazo[1,2-a:5,4-b′]dipyridine]"
3,< 1000,"COc1ccc(-c2ccc3nc4c(n3c2)N(c2cc(C)ccc2C)CCC4)cn1 [Example 5, 1-(2,5-Dimethylphenyl)-8-(6-methoxypyridin-3-yl)-1,2,3,4-tetrahydroimidazo [1,2-a:5,4-b′]dipyridine]"
4,< 1000,"COc1ccc(-c2ccc3nc4c(n3c2)N(c2cc(C)ccc2OC)CCC4)cn1 [Example 7, 1-(2-Methoxy-5-methylphenyl)-8-(6-methoxypyridin-3-yl)-1,2,3,4-tetrahydroimidazo [1,2-a:5,4-b′]dipyridine]"
5,< 1000,"COc1ccc(-c2ccc3nc4c(n3c2)N(c2ccccc2C)CCC4)cn1 [Example 9, 8-(6-Methoxypyridin-3-yl)-1-(o-tolyl)-1,2,3,4-tetrahydroimidazo[1,2-a:5,4-b′]dipyridine]"
6,1000 to 10000,"COc1ccc(-c2ccc3nc4c(n3c2)N(c2cc(C(F)(F)F)ccc2C)CCC4)cn1 [Example 11, 8-(6-Methoxypyridin-3-yl)-1-(2-methyl-5-(trifluoromethyl)phenyl)-1,2,3,4-tetrahydroimidazo[1,2-a:5,4-b′]dipyridine]"
7,< 1000,"Cc1ccc(C)c(N2CCCc3nc4ccc(-c5cnn(C)c5)cn4c32)c1 [Example 12, 1-(2,5-Dimethylphenyl)-8-(1-methyl-1H-pyrazol-4-yl)-1,2,3,4-tetrahydroimidazo [1,2-a:5,4-b′]dipyridine]"
8,< 1000,"Cc1ccc(C)c(N2CCCc3nc4ccc(-c5cnc(N6CCOCC6)nc5)cn4c32)c1 [Example 14, 4-(5-(1-(2,5-Dimethylphenyl)-1,2,3,4-tetrahydroimidazo[1,2-a:5,4-b′]dipyridin-8-yl)pyrimidin-2-yl)morpholine]"
9,< 1000,"Cc1ccc(C)c(N2CCCc3nc4ccc(-c5ccc(-c6nnc(C)o6)cc5)cn4c32)c1 [Example 16, 2-(4-(1-(2,5-Dimethylphenyl)-1,2,3,4-tetrahydroimidazo[1,2-a:5,4-b′]dipyridin-8-yl)phenyl)-5-methyl-1,3,4-oxadiazole]"
10,< 1000,"Cc1nnc(-c2ccc(-c3ccc4nc5c(n4c3)N(c3ccccc3OC(F)F)CCC5)cc2)o1 [Example 17, 2-(4-(1-(2-(Difluoromethoxy)phenyl)-1,2,3,4-tetrahydroimidazo[1,2-a:5,4-b′]dipyridin-8-yl)phenyl)-5-methyl-1,3,4-oxadiazole]"
11,< 1000,"Cc1ccc(C)c(N2CCCc3nc4ccc(-c5cnc(C(C)(C)O)nc5)cn4c32)c1 [Example 18, 2-(5-(1-(2,5-Dimethylphenyl)-1,2,3,4-tetrahydroimidazo[1,2-a:5,4-b′]dipyridin-8-yl)pyrimidin-2-yl)propan-2-ol]"
12,< 1000,"COc1ccc(-c2ccc3nc4c(n3c2)N(c2cc(C)ccc2OC(F)F)CCC4)cn1 [Example 20, 1-(2-(Difluoromethoxy)-5-methylphenyl)-8-(6-methoxypyridin-3-yl)-1,2,3,4-tetrahydroimidazo[1,2-a:5,4-b′]dipyridine]"
13,1000 to 10000,"COc1ccc(-c2cn3c4c(nc3cc2Cl)CCCN4c2cc(C)ccc2C)cn1 [Example 23, 7-Chloro-1-(2,5-dimethylphenyl)-8-(6-methoxypyridin-3-yl)-1,2,3,4-tetrahydroimidazo[1,2-a:5,4-b′]dipyridine]"
14,1000 to 10000,"COc1ccc(-c2ccc3nc4c(n3c2)N(c2cccc(C)c2C)CCC4)cn1 [Example 24, 1-(2,3-Dimethylphenyl)-8-(6-methoxypyridin-3-yl)-1,2,3,4-tetrahydroimidazo [1,2-a:5,4-b′]dipyridine]"
15,< 1000,"COc1ccc(-c2ccc3nc4c(n3c2)N(c2cc(F)ccc2C)CCC4)cn1 [Example 25, 1-(5-Fluoro-2-methylphenyl)-8-(6-methoxypyridin-3-yl)-1,2,3,4-tetrahydroimidazo [1,2-a:5,4-b′]dipyridine]"
16,< 1000,"COc1ccc(-c2ccc3nc4c(n3c2)N(c2ccc(F)cc2C)CCC4)cn1 [Example 26, 1-(4-Fluoro-2-methylphenyl)-8-(6-methoxypyridin-3-yl)-1,2,3,4-tetrahydroimidazo [1,2-a:5,4-b′]dipyridine]"
17,1000 to 10000,"COc1ccc(-c2ccc3nc4c(n3c2)N(c2ccc(C)cc2C)CCC4)cn1 [Example 30, 1-(2,4-Dimethylphenyl)-8-(6-methoxypyridin-3-yl)-1,2,3,4-tetrahydroimidazo[1,2-a:5,4-b′]dipyridine]"
18,< 1000,"COc1ccc(-c2ccc3nc4c(n3c2)N(c2cc(Cl)ccc2C)CCC4)cn1 [Example 32, 1-(5-Chloro-2-methylphenyl)-8-(6-methoxypyridin-3-yl)-1,2,3,4-tetrahydroimidazo[1,2-a:5,4-b′]dipyridine]"
19,< 1000,"CC(C)(O)c1ccc(-c2ccc3nc4c(n3c2)N(c2ccccc2OC(F)F)CCC4)cc1 [Example 35, 2-(4-(1-(2-(Difluoromethoxy)phenyl)-1,2,3,4-tetrahydroimidazo[1,2-a:5,4-b′]dipyridin-8-yl)phenyl)propan-2-ol]"
